Reference: article PMC6946680, “Modulation of brain cation-Cl^− cotransport via the SPAK kinase inhibitor ZT-1a” (Nature Communications, 2020)
Where “and” joins values, the source holds several entries; their conditions need not be identical. Equal entries are not always repeated.

How the values were obtained:
[1] = tested on: SPAK phosphorylation; assay: Pharmacodynamic study, SPAK phosphorylation in kidney of naive mice; format: in vivo, mouse; conditions: Fig S8b (kidney)
Description: (§1) To define ZT-1a efficacy in naive mice in vivo, we examined phosphorylation of SPAK, NKCC1, and NCC in kidney, and phosphorylation of SPAK, NKCC1, and KCC3 in brain, after intraperitoneal (i.p.) administration of either ZT-1a (10, 30, 50, and 100 mg/kg) or Closantel (50 mg/kg as a reference). […]
(§2) 5. Pharmacodynamic (PD) study
(§3) Male C57BL/6j wild-type mice (6 weeks old, Charles River Laboratories Edinburgh UK) were treated with ZT-1a (in DMSO, Sigma) by subcutaneous injection at doses of 0, 3, 10, 30, 50 and 100 mg/kg. 50 mg/kg Closantel was administered as a comparative control. Vehicle control mice were treated with an equal volume of DMSO solution. One hour after administration, mice were sacrificed by cervical dislocation, and kidney and brain tissues were rapidly dissected and snap-frozen in liquid nitrogen. Age- […]
(§4) free conditions at the University of Dundee (UK) as described in our recent study1. Animal experiments and breeding were approved by the University of Dundee ethical committee and performed under a […]
(§5) Policy on the Care, Welfare and Treatment of Animals, and regulations set by the University of Dundee and the U.K. Home Office. […]
(§6) Brain and kidney tissues were collected at 60 min post injection, and proteins subjected to immunoblot were probed with antibodies specific for phosphorylated forms of SPAK,

[2] = molecular target: human SPAK 452-547(C-term) with WNK peptide (RFQV) (Homo sapiens, UniProt Q9UEW8); assay: Fluorescence polarization of SPAK–WNK peptide interaction; format: binding; conditions: for Inhibitor vs SPAK FL (fluorescence polarization signal): Fig S5b
[3] = tested on: NKCC1 pThr203/207/212; assay: Pharmacodynamic study, NKCC1 phosphorylation in kidney of naive mice; format: in vivo, mouse; conditions: Fig S8b (kidney)
Description: as §1, §2, §3, §4, §5, §6

[4] = tested on: SPAK pSer373; assay: Immunoblot of SPAK/OSR1 p-Ser373/Ser325 in HEK-293 cells; format: cell-based, human; conditions: for pSPAK/SPAK band intensity ratio: single replicates
[5] = tested on: regional cerebral blood flow; assay: Regional cerebral blood flow by laser speckle contrast imaging after tMCAO; format: in vivo, mouse; conditions: single mice
Description: Regional cerebral blood flow was measured using a two-dimensional laser speckle contrast analysis system (PeriCam PSI High Resolution with PIMSoft, Perimed)[65]. Isoflurane-anesthetized mice were head-fixed using stereotaxic equipment during imaging. The skin was retracted to expose the intact skull. Images were taken at 19 frames/second with averaging. Average signal intensity was taken from fixed-size (0.5-mm^2) regions of interest drawn over the parietal bone plate on the ipsi (IL)- and contralateral (CL) sides. Percent perfusion values were taken in comparison with the mean values of the pre-ischemic ipsilateral side. Five consecutive images at each time period per animal were averaged for analysis. […]
cerebral blood flow (rCBF) in ischemic mice. a and d Representative two-dimensional laser speckle contrast images of rCBF. Vehicle (DMSO), ZT-1a (A, 2.5 mg/kg), or Closantel (D, 1.25 mg/kg, i.p.) was administered i.p. at 3 hr and again at 8 hr post-reperfusion after MCAO. Pseudocolor scale bar indicates relative signal intensity. b and e No changes of rCBF were detected in the non-ischemic […]
contralateral (CL) hemispheres of vehicle-control or ZT-1a-treated (b) or Closantel-treated mice (e).
Data are mean ± SD, n = 3. c and f Similar reductions and recoveries of rCBF in the ischemic ipsilateral hemispheres (IL) were detected in the ZT-1a-treated (c) or Closantel-treated ischemic mice (f), and neither differed from vehicle-injected mice. Data are mean ± SEM, n = 3.

Cc1cc(C(C#N)c2ccc(Cl)cc2)c(Cl)cc1NC(=O)c1cc(Cl)ccc1O (stereo not shown) [ZT-1a, 5-chloro-N-(5-chloro-4-((4-chlorophenyl)(cyano)methyl)-2-methylphenyl)-2-hydroxybenzamide]
pSer373 / SPAK ([1]; 10 mg/kg): 0.9 and 1.08 and 0.92 and 0.99 | pSer373 / SPAK ([1]; 30 mg/kg): 0.85 and 0.8 and 0.86 and 0.76 | pSer373 / SPAK ([1]; 50 mg/kg): 0.56 and 0.45 and 0.51 and 0.41 | pSer373 / SPAK ([1]; 100 mg/kg): 0.37 and 0.44 and 0.38 and 0.4 | IC50 ([2]; 10 nM Lumino-Green WNK peptide, read-out: IC50, decrease in fluorescence polarization (SPAK–WNK peptide)): 325 µM | Inhibitor vs SPAK FL (fluorescence polarization signal) ([2]; Inhibitor 1e-5 μM): 140.3 and 136 and 147.2 | Inhibitor vs SPAK FL (fluorescence polarization signal) ([2]; Inhibitor 0.0001 μM): 142.6 and 130.1 and 143.7 | Inhibitor vs SPAK FL (fluorescence polarization signal) ([2]; Inhibitor 0.001 μM): 141.9 and 135.2 and 145.3 | Inhibitor vs SPAK FL (fluorescence polarization signal) ([2]; Inhibitor 0.003 μM): 148.6 and 138.3 and 144.2 | Inhibitor vs SPAK FL (fluorescence polarization signal) ([2]; Inhibitor 0.01 μM): 150.4 and 140.8 and 146.2 | Inhibitor vs SPAK FL (fluorescence polarization signal) ([2]; Inhibitor 0.03 μM): 151.3 and 139.2 and 146.8 | Inhibitor vs SPAK FL (fluorescence polarization signal) ([2]; Inhibitor 0.1 μM): 152.2 and 141.6 and 147.3 | Inhibitor vs SPAK FL (fluorescence polarization signal) ([2]; Inhibitor 0.3 μM): 151.7 and 143.1 and 150.3 | Inhibitor vs SPAK FL (fluorescence polarization signal) ([2]; Inhibitor 1 μM): 154.3 and 140.8 and 151.4 | Inhibitor vs SPAK FL (fluorescence polarization signal) ([2]; Inhibitor 3 μM): 149 and 139.7 and 147.8 | Inhibitor vs SPAK FL (fluorescence polarization signal) ([2]; Inhibitor 10 μM): 149.9 and 139.1 and 147.3 | Inhibitor vs SPAK FL (fluorescence polarization signal) ([2]; Inhibitor 100 μM): 127.1 and 121.5 and 130.6 | pTh203.207.212 / NKCC1 ([3]; 10 mg/kg): 1.13 and 1.26 and 1.54 and 1.32 | pTh203.207.212 / NKCC1 ([3]; 30 mg/kg): 1.14 and 0.89 and 0.64 and 0.77 | pTh203.207.212 / NKCC1 ([3]; 100 mg/kg): 0.41 and 0.27 and 0.44 and 0.32 | pSPAK/SPAK band intensity ratio ([4]; Hypotonic low Cl, 1 uM): 0.189 and 0.226 and 0.157 and 0.173 | pSPAK/SPAK band intensity ratio ([4]; Hypotonic low Cl, 3 uM): 0.081 and 0.093 and 0.086 and 0.0963 | pSPAK/SPAK band intensity ratio ([4]; Hypotonic low Cl, 10 uM): 0.038 and 0.034 and 0.031 and 0.043 | pSPAK/SPAK band intensity ratio ([4]; Isotonic control, 1 uM): 0.113 and 0.123 and 0.106 and 0.12 | pSPAK/SPAK band intensity ratio ([4]; Isotonic control, 3 uM): 0.067 and 0.051 and 0.053 and 0.059 | pSPAK/SPAK band intensity ratio ([4]; Isotonic control, 10 uM): 0.031 and 0.034 and 0.024 and 0.028 | inhibition of SPAK phosphorylation at Ser373 ([4]; ~3–10 µM ZT-1a, n = 3): 70 ± 3.8% | % CBF ([5]; Fig S10b/S10e, Pre): 100% | % CBF ([5]; Fig S10b/S10e, Reperfusion 10 min): 99% and 109% and 96% | % CBF ([5]; Fig S10b/S10e, Reperfusion 20 min): 87% and 110% and 86% | % CBF ([5]; Fig S10b/S10e, Reperfusion 3 h): 120% and 108% and 100% | % CBF ([5]; Fig S10b/S10e, Reperfusion 4 h): 119% and 117% and 112% | % CBF ([5]; Fig S10b/S10e, Reperfusion 24 h): 106% and 104% and 114% | % CBF ([5]; Fig S10b/S10e, mcao 10 min): 78% and 99% and 105% | % CBF ([5]; Fig S10b/S10e, mcao 20min): 76% and 107% and 98% | % CBF ([5]; Fig S10b/S10e, mcao 50 min): 104% and 96% | % CBF ([5]; Fig S10c/S10f, Pre): 100% | % CBF ([5]; Fig S10c/S10f, Reperfusion 10 min): 70% and 72% and 78% | % CBF ([5]; Fig S10c/S10f, Reperfusion 20 min): 75% and 66% and 82% | % CBF ([5]; Fig S10c/S10f, Reperfusion 3 h): 84% and 102% and 81% | % CBF ([5]; Fig S10c/S10f, Reperfusion 4 h): 75% and 87% and 86% | % CBF ([5]; Fig S10c/S10f, Reperfusion 24 h): 83% and 101% and 109% | % CBF ([5]; Fig S10c/S10f, mcao 10 min): 35% and 30% and 25%
